Assay results reported in patent US4906565A, “Method for the selective detection of microbial nucleotides” (Minnesota Mining and Manufacturing Company, priority 1986, dated 1990).
“And” between values parts separate entries of the source, which are not always exact repeats. Equal values may be shown once.

Columns and labels:
Assay type in all cases: biochemical
glycerokinase = test: Inhibition of glycerokinase (protection of ATP), bioluminescent ATP assay in buffer; details: for RLU 5 min. / RLU 10 min. / RLU 15 min. / RLU 0 min.: glycerokinase; for RLU 5 min.: 5 min. after glycerol; for RLU 10 min.: 10 min. after glycerol; for RLU 15 min.: 15 min. after glycerol; for RLU 0 min.: before glycerol added
Protocol: Assay: Glycerol was added last to the samples to initiate the enzyme's activity. Before glycerol was added a 50 μl aliquot was taken from all samples. ATP levels in those aliquots (expressed in RLU) were determined as time zero values. Next glycerol was added to the mixtures and further 50 μl aliquots were taken at 5, 10, and 15 minutes. ATP in all aliquots was measured by bioluminescent means as described. Results:
Assay: Glycerol was added last to the samples to initiate the enzyme's activity. Before glycerol was added a 50 μl aliquot was taken from all samples as time zero. Next glycerol was added to the samples and after 5, 10 and 15 minutes, 50 μl aliquots were again taken. ATP in all aliquots was measured as described.
Assay: Glycerol was added last to the samples to initiate the enzyme's activity. Before glycerol was added a 50 μl aliquot was taken from all samples as time zero. At 5, 10 and 15 minutes after addition of glycerol further 50 μl aliquots were taken from the samples. ATP in all aliquots was measured as described.

firefly luciferase [1] = target: T1, firefly luciferase (Photinus pyralis, UniProt P08659); test: Effect of inhibitor on the bioluminescent assay of ATP
T1 construct: purchased Lumac/3M Lumit PM
Protocol: Assay: from each sample triplicate 100 μl aliquots were taken. In those aliquots ATP was measured as described.
Assay: from each sample triplicate 100 μl aliquots were taken. ATP in those aliquots was measured as described.
Assay: From each sample triplicate 100 μl aliquots were taken and ATP was measured as described.
Protocol: Eight samples were prepared using materials described above and previously, as shown in TABLE 7-1 and incubated for various periods of time (i.e., 0, 5, 10 and […]) before aliquots were taken and assayed as described.
Protocol: Increasing concentrations of hexokinase, with and without PCMPSA were prepared according to TABLE 8-1 using materials described above and previously.

firefly luciferase [2] = target: T1, firefly luciferase; test: as above; details: for RLU mean / RLU, triplicate aliquots 1, 2, 3: ATP in Lumit buffer, no kinase; for % of control: control = ethanol, 0 mM DNFB

T1 sequence (P08659 whole entry): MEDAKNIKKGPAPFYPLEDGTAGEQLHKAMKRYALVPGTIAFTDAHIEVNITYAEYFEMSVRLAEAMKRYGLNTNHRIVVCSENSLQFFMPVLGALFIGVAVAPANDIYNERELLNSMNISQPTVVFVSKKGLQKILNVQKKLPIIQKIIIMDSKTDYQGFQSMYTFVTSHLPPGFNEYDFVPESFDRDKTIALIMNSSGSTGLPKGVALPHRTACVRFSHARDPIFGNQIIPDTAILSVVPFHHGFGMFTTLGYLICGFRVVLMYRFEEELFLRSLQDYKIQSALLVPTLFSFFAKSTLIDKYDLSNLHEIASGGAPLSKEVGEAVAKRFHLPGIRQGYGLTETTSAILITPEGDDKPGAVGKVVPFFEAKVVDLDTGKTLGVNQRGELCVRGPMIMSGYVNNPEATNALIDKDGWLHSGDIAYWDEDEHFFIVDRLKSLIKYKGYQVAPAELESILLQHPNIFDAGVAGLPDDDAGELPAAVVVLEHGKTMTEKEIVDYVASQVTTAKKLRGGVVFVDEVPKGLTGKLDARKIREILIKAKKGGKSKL

SMILES: O=[N+]([O-])c1ccc(F)c([N+](=O)[O-])c1 [DNFB]
- inhibition of glycerokinase (conclusion in words) (glycerokinase; 0.0827 mM DNFB): not effectively inhibited
- inhibition of glycerokinase (conclusion in words) (glycerokinase; 0.27 mM DNFB (so in the source)): effectively inhibited
- inhibition of glycerokinase (conclusion in words) (glycerokinase; 8.27 mM DNFB (so in the source)): moderately inhibited
- RLU 5 min. (glycerokinase; DNFB 0.0827 mM): 11 RLU
- RLU 10 min. (glycerokinase; DNFB 0.0827 mM): 11 RLU
- RLU 15 min. (glycerokinase; DNFB 0.0827 mM): 18 RLU
- RLU 0 min. (glycerokinase; DNFB 0.0827 mM): 7025 RLU
- RLU 5 min. (glycerokinase; DNFB 0.827 mM): 1585 RLU
- RLU 10 min. (glycerokinase; DNFB 0.827 mM): 1498 RLU
- RLU 15 min. (glycerokinase; DNFB 0.827 mM): 1618 RLU
- RLU 0 min. (glycerokinase; DNFB 0.827 mM): 7402 RLU
- RLU 5 min. (glycerokinase; DNFB 8.27 mM): 7785 RLU
- RLU 10 min. (glycerokinase; DNFB 8.27 mM): 7965 RLU
- RLU 15 min. (glycerokinase; DNFB 8.27 mM): 7968 RLU
- RLU 0 min. (glycerokinase; DNFB 8.27 mM): 8002 RLU
- % of control (firefly luciferase [1]; DNFB 0.0827 mM, control = ethanol, 0 mM DNFB): 106%
- interference with the bioluminescent assay of ATP by firefly luciferase (conclusion in words) (firefly luciferase [1]; DNFB concentrations of Example 3): does not interfere
- RLU mean (firefly luciferase [2]; DNFB 0.0827 mM): 15429 RLU
- RLU, triplicate aliquots 1, 2, 3 (firefly luciferase [2]; DNFB 0.0827 mM): 15157 RLU and 15625 RLU and 15507 RLU
- RLU mean (firefly luciferase [2]; DNFB 0.827 mM): 15914 RLU
- RLU, triplicate aliquots 1, 2, 3 (firefly luciferase [2]; DNFB 0.827 mM): 16060 RLU and 15753 RLU and 15929 RLU
- % of control (firefly luciferase [2]; DNFB 0.827 mM): 110%
- RLU mean (firefly luciferase [2]; DNFB 8.27 mM): 14784 RLU
- RLU, triplicate aliquots 1, 2, 3 (firefly luciferase [2]; DNFB 8.27 mM): 14498 RLU and 14780 RLU and 15076 RLU
- % of control (firefly luciferase [2]; DNFB 8.27 mM): 102.2%
